Results as given in patent US5266591A, “Ethanolamine benzoate compounds” (Adir et Compagnie, priority 1991, dated 1993).
pIC50: −log10 of the molar value. Read-outs that look alike come from different tables or passages of the source.

Experiments:
[1] = test system: 52-week-old male SDCD rats; experiment: Chronic treatment per os of 52-week-old male SDCD rats (weight, insulinaemia, glycaemia, glucose tolerance, lipids); type: in vivo, rat; conditions: 14 days; for % weight change: 52-week-old male SDCD rats; for Basal insulinaemia % change / Cholesterol % change / Glucose tolerance K 10^-2 % change / Glycaemia % change / Triglyceride % change: vs control
Experimental: A. Study of the Effect of a Chronic Treatment Administered Per OS to 52-Week-Old Male SDCD Rats The tests are carried out on rats that have weight anomalies associated with hyperinsulism and hyperglyceridaemia. on the one hand the effect of a prolonged treatment with the product of Example 1 and the reference substances on those anomalies, and In this experiment, adult male SPRAGUE DAWLEY rats were used in groups of 5 to 12 animals. […]
a reduction in glucose tolerance, an increase in basal insulinaemia, and an increase in plasma lipids.
The housing (from 9 to 52 weeks) of these rats was effected in a chamber at a temperature regulated at from 21° to 22° C. which was subjected to a fixed cycle of light (from 7.30 to 19.30 hours) and darkness (from 19.30 to 7.30 hours). Their food consisted of a maintenance diet (UAR A 03); water and food were supplied "ad libitum", with the exception of the night-fasting preceding the tests, when the food was removed.
9 days before the beginning of the experiment (d-9), the rats are divided into groups by randomisation based on weight.
5 days before the beginning of the experiment (d-5) the rats are conditioned by administering a gum solution.
The first day of the experiment (d1), the products to be tested are administered to the rats at different doses twice per day. More precisely, the products are administered suspended in the gum between 9.00 and 10.00 hours and 16.00 and 17.00 hours for 14 days. The treated animals are weighed daily.
On day 15 the rats (fasted for 18 hours) are sacrificed by decapitation. The blood is immediately collected in a cupule. An amount (50 μl ) is transferred into 500 μl of uranyl acetate for determining the glycaemia. An amount of 3 ml is transferred into a tube containing a solution of heparin (30 μl per 1 ml of whole blood) and centrifuged to separate the plasma. Another amount of 300 μl is transferred to a tube containing 15 μl of a solution of EDTA/NaF for determining the lactates.

[2] = test system: LDL (low-density lipoproteins); experiment: In vitro LDL oxidation by copper; type: biochemical
Experimental: (§1) A comparative study between the product of Example 1 and the reference substances (benfluorex, dimethyl biguanide) with respect to in vitro LDL oxidation was carried out.

[3] = test system: LDL (low-density lipoproteins); experiment: In vitro LDL oxidation by monocytes; type: cell-based; conditions: for In vitro LDL oxidation by monocytes, activity: at 10^-4 M
Experimental: as §1

[4] = test system: esters of cholesterol; experiment: Incorporation of oleate in the esters of cholesterol; type: cell-based; conditions: for inhibition at 10 µM: read-out: Incorporation of oleate in the esters of cholesterol
[5] = test system: conscious dogs; experiment: Hypotensive effect in conscious dogs (sphygmomanometer on the tail); type: in vivo; conditions: conscious dog, 5 mg/kg p.o., n = 4
Experimental: The arterial pressure was measured by external pressure band (sphygmomanometer) on the tail of the dog, before and after treatment with the product of Example 1 at a dose of 5 mg/kg p.o..

| SMILES | % weight change ([1]; 1 mg/kg x2 per day p.o.) [%] | Basal insulinaemia % change ([1]; 1 mg/kg x2 per day p.o.) [%] | Cholesterol % change ([1]; 1 mg/kg x2 per day p.o.) [%] | Glucose tolerance K 10^-2 % change ([1]; 1 mg/kg x2 per day p.o.) | Glycaemia % change ([1]; 1 mg/kg x2 per day p.o.) | Triglyceride % change ([1]; 1 mg/kg x2 per day p.o.) [%] | % weight change ([1]; 2.5 mg/kg x2 per day p.o.) [%] | Basal insulinaemia % change ([1]; 2.5 mg/kg x2 per day p.o.) [%] | Cholesterol % change ([1]; 2.5 mg/kg x2 per day p.o.) [%] | Glucose tolerance K 10^-2 % change ([1]; 2.5 mg/kg x2 per day p.o.) | Glycaemia % change ([1]; 2.5 mg/kg x2 per day p.o.) [%] | Triglyceride % change ([1]; 2.5 mg/kg x2 per day p.o.) [%] | In vitro LDL oxidation by monocytes, activity [3] | further results |
| --- | --- | --- | --- | --- | --- | --- | --- | --- | --- | --- | --- | --- | --- | --- |
| CC(Cc1cccc(C(F)(F)F)c1)NCCOC(=O)c1ccccc1 (stereo not shown) [Benfluorex] | -2 | -10 | -20 | +30% | -10% | -43 | -6 | -16 | -30 | +25% | -12 | -44 | inactive | In vitro LDL oxidation by copper, activity ([2]; at 10^-4 M): inactive; inhibition at 10 µM ([4]; at 10^-5 M): 30% |
| CN(C)C(=N)NC(=N)N [Dimethyl biguanide] |  |  |  |  |  |  |  |  |  |  |  |  | inactive | Incorporation of oleate in the esters of cholesterol ([4]; at 10^-5 M): inactive |
| C[C@@H](Cc1cccc(C(F)(F)F)c1)NCCOC(=O)c1ccc(CCNC(=O)CC(c2ccccc2)c2ccccc2)cc1 [Example 1, (S)-1-(m-trifluoromethylphenyl)-2-{β-{4-[2-(N-(3,3-diphenylpropionyl)amino)ethyl]benzoyloxy}ethylamino}propane] | -1.4 | -15 | 0 | +23% | +8% | -10 | -3 | -26 | 0 | +30% | 0 | -20 |  | pIC50 [2]: 4.30; pIC50 ([3]; read-out: In vitro LDL oxidation by monocytes, IC50): 4.30; inhibition at 10 µM [4]: 70%; Decrease in arterial pressure, diastolic AP [5]: -20 to -27 mmHg; Decrease in arterial pressure, systolic AP [5]: -15 to -22 mmHg |
